{
  "source": "patent US10314804B2",
  "about": "“Composition containing norbixin for protecting cells of the retinal pigment epithelium” (BIOPHYTIS, priority 2015, dated 2019)",
  "key": {"[1]": {"experiment": "bioavailability of bixin and norbixin, plasma analysis", "format": "in vivo, C57Bl/6 mice", "details": "for Cmax: 50 mg/kg; for AUC(0-t): read-out: AUC 0-24 h; for detection in plasma over time: after bixin ingestion", "description": "Studies of the bioavailability of bixin and of norbixin were carried out in C57Bl/6 mice. The compounds were administered orally (50 mg/kg). Blood samples were taken after 0.25, 0.5, 1, 3, 6, 8 and 24 h and analyzed by HPLC-DAD (UV 460 nm)-MS/MS."}, "rats [2]": {"test_system": "rats", "experiment": "rat blue light model, intraperitoneal injection", "format": "in vivo", "details": "100 mg/kg i.p.", "description": "The “rat blue light” model consists in subjecting the animals to a strong blue light for 6 hours in order to cause ocular damage that is assessed 7 days later by carrying out electroretinograms and then by histological analyses. An antioxidant compound, PBN (phenyl-N-tert-butylnitrone) is used as positive control (Ranchon et al., 2001; Tomita et al., 2005). The compounds of which it is sought to determine the photoprotective activity are injected (intraperitoneally) before and during the illumination phase. Said phase is carried out with Philips blue neon tubes (4.2 mW/cm^2) for 6 hours.\nThree series of experiments were carried out with norbixin (100 mg/kg, four injections per rat of a solution at 50 mM in 9‰ NaCl, 4 rats/series) using PBN (phenyl-N-tert-butylnitrone, 50 mg/kg, solution at 20 mg/ml in 9‰ NaCl) as positive control."}, "[3]": {"test_system": "double KO mice (ABCA4−/−, RDH8−/−)", "experiment": "photoprotective activity by intravitreal injection, blue light exposure", "format": "in vivo", "from_the_text": "A genetically modified mouse model developed by Maeda et al. (2008) was used to test the photoprotective activity of norbixin. In this mouse model, two genes involved in the visual pigment cycle (ABCA4 and RDH8) are inactivated, which results in an early accumulation of A2E in the eyes (FIG. 5). This animal model is as a result similar to the human pathological condition, with of course its limits, associated with the differences in organization of the eyes between rodents and primates. 7-week-old mice were thus used to carry out unilateral intravitreal injections of norbixin (in order to obtain a final concentration in the vitreous body of 130 μM). After 24 h in the dark, the mice were subjected to an exposure to blue light (4000 lux, 1 h)."}, "[4]": {"test_system": "primary cultures of adult pig RPE", "experiment": "in vitro photoprotection test: RPE cells with A2E, blue light illumination, cell survival", "format": "cell-based", "details": "20 μM (extract diluted to provide 20 μM of bixin), FIG. 1", "description": "The term “blue radiation” is intended to mean the radiation corresponding to the blue band of the visible light spectrum, that is to say having a wavelength of between 435 and 490 nm. This model uses primary cultures of adult pig RPE. The cell survival is quantified by means of a cell viability test. At −48 h, the compounds to be tested (in 5 mM solution in DMSO) are added so as to obtain final concentrations of 1 to 20 μM), then at −19 h, A2E is added (final concentration 30 μM) and the cells are irradiated (time 0 h). 24 h later, the cell survival is measured. The acquisition of the images and also the processing thereof are carried out by means of a fluorescence microscope controlled by the Metamorph software and of a dedicated quantification program. The experiments are carried out on 96-well microplates in quadruplicate and the experiment is reproduced a minimum of four times. The results are expressed in the form of a ratio representing the number of live cells in the wells treated with the molecules to be tested, divided by the number of live cells in the control wells (treated with the dilution medium without A2E)."}, "[5]": {"test_system": "primary cultures of adult pig RPE", "details": "cited from earlier work; for photoprotective activity on RPE cells in earlier tests (FR 11 54172): 0.1 μM, 1 μM and 10 μM"}, "[6]": {"experiment": "presence of norbixin in the eyes after intraperitoneal injection", "format": "in vivo, double KO mice (ABCA4−/−, RDH8−/−)", "description": "The presence of norbixin in the eyes was investigated in double KO mice (ABCA4^−/−, RDH8^−/−) 3 hours after intraperitoneal injection of norbixin (10 mg/kg). The eyes of 6 animals were dissected and the samples were extracted with acetonitrile, pooled and then analyzed by HPLC-MS/MS (FIG. 4), which made it possible to specifically detect the presence of norbixin in the RPE and the retina (table 2).\nGlucuronidation had also been described in the case of crocetin (Asai et al., 2005)."}, "[7]": {"details": "cited from earlier work"}, "rats [8]": {"test_system": "rats", "details": "cited from earlier work"}, "[9]": {"test_system": "double KO mice (ABCA4−/−, RDH8−/−)", "experiment": "photoprotective activity by chronic oral administration (supplemented feed, 3 months)", "format": "in vivo", "description": "A feed containing 0.3 mg/g of pure norbixin was prepared and given to double KO mice (ABCA4^−/−, RDH8^−/−) for a period of 3 months."}, "neuroganglion cells": {"test_system": "neuroganglion cells", "details": "Yamauchi et al., 2011; cited from earlier work"}, "[10]": {"details": "C57Bl/6, mouse, plasma, po, Bixin ingestion (50 mg/kg), analyte as labelled"}, "[11]": {"details": "C57Bl/6, mouse, po, Bixin ingestion (50 mg/kg), plasma, analyte as labelled"}},
  "note": "“Also recorded” adds a separate entry of the source. Read-outs that look alike come from different tables or passages of the source.",
  "data": [
    {"smiles": "CC(=C/C=C/C(C)=C/C=C/C=C(C)/C=C/C=C(C)/C=C/C(=O)O)/C=C/C(=O)O", "note": "[norbixin]", "values": [
      {"measurement": "Tmax", "setting": "[1]; Bixin ingestion (50 mg/kg), plasma, analyte as labelled", "value": "Norbixin 0.5 h"},
      {"measurement": "Cmax", "setting": "[1]; [10]", "value": 649, "unit": "ng/mL"},
      {"measurement": "Cmax", "setting": "[1]; C57Bl/6, mouse, plasma, po, Norbixin ingestion (50 mg/kg)", "value": 12400, "unit": "ng/mL"},
      {"measurement": "bioavailability", "setting": "[1]; C57Bl/6, mouse, plasma, intraperitoneal injection (5 mg/kg) versus oral administration (50 mg/kg), FIG. 3b", "value": 55, "unit": "%"},
      {"measurement": "AUC(0-t)", "setting": "[1]; [11]", "value": 1340, "unit": "ng·h/mL"},
      {"measurement": "AUC", "setting": "[1]; C57Bl/6, mouse, po, Norbixin ingestion (50 mg/kg), plasma", "value": 41600, "unit": "ng·h/mL"},
      {"measurement": "Tmax", "setting": "[1]; C57Bl/6, mouse, po, Norbixin ingestion (50 mg/kg), plasma, read-out: Tmax", "value": 30, "unit": "min"},
      {"measurement": "detection in plasma over time", "setting": "[1]; oral 50 mg/kg", "value": "no longer detected after 8 hours"},
      {"measurement": "electroretinograms (A-waves and B-waves)", "setting": "rats [2]; four injections, blue light 6 hours, 7 days later, FIG. 8B", "value": "significant efficacity"},
      {"measurement": "survival of the photoreceptors, histology", "setting": "rats [2]; FIGS. 9A and 9B", "value": "confirm the photoprotective action"},
      {"measurement": "elimination from the eye after intravitreal injection", "setting": "[3]; 24 h after the intravitreal injection", "value": "virtually eliminated"},
      {"measurement": "electroretinogram (A- and B-waves)", "setting": "[3]; intravitreal, 130 μM in vitreous body, blue light 4000 lux 1 h, 7 days later, FIG. 6", "value": "protective effect"},
      {"measurement": "thickness of the layer of external nuclei (photoreceptors), histology", "setting": "[3]; intravitreal, 130 μM, FIG. 7", "value": "protective effect"},
      {"measurement": "protection of RPE cells against phototoxicity induced in the presence of A2E (cell survival)", "setting": "[4]", "value": "effectively protect"},
      {"measurement": "photoprotective activity on RPE cells in earlier tests (FR 11 54172)", "setting": "[5]", "value": "do not have any photoprotective activity"},
      {"measurement": "Norbixin (ng/organ), Crystalline", "setting": "[6]; 3 hours after i.p. 10 mg/kg, Crystalline", "value": "<LOQ"},
      {"measurement": "Norbixin (ng/organ), RPE", "setting": "[6]; 3 hours after i.p. 10 mg/kg, RPE", "value": 5.15, "unit": "ng/organ"},
      {"measurement": "Norbixin (ng/organ), Retina", "setting": "[6]; 3 hours after i.p. 10 mg/kg, Retina", "value": 2.40, "unit": "ng/organ"},
      {"measurement": "Norbixin (ng/organ), Total", "setting": "[6]; 3 hours after i.p. 10 mg/kg, Total", "value": 7.55, "unit": "ng/organ"},
      {"measurement": "Norbixin (ng/organ), Vitreous humor", "setting": "[6]; 3 hours after i.p. 10 mg/kg, Vitreous humor", "value": "<LOQ"},
      {"measurement": "conjugated forms in plasma and eyes", "setting": "[6]; HPLC-MS/MS, FIG. 4", "value": "gives two monoglucuronides"},
      {"measurement": "acceptable daily intake (ADI)", "setting": "[7]; JECFA/67/FC", "value": "at most 0.6 mg/kg/day of body weight"},
      {"measurement": "daily intake with no observable adverse effect level in humans, equivalent", "setting": "[7]; equivalent of rat NOAEL", "value": 11, "unit": "mg/kg"},
      {"measurement": "intake up to which no toxicity was observed", "setting": "rats [8]; rat, in vivo", "value": 20, "unit": "mg/kg/day"},
      {"measurement": "no observable adverse effect level (NOAEL)", "setting": "rats [8]; rats", "value": "69 mg/kg/day of body weight"},
      {"measurement": "accumulation of norbixin in the eyes", "setting": "[9]; chronic treatment, feed, 3 months", "value": "no significant accumulation"},
      {"measurement": "A2E accumulation in the eyes", "setting": "[9]; feed 0.3 mg/g, 3 months, FIG. 10", "value": "reduction in A2E accumulation"},
      {"measurement": "amplitude of the electroretinogram (ERG)", "setting": "[9]; feed 0.3 mg/g, 3 months, FIG. 11", "value": "positive effect"},
      {"measurement": "daily intake that significantly slows down the retinal degeneration", "setting": "[9]; mice, oral administration", "value": "48 mg/kg of body weight"}
    ]},
    {"smiles": "COC(=O)/C=C/C(C)=C\\C=C\\C(C)=C\\C=C\\C=C(C)\\C=C\\C=C(C)\\C=C\\C(=O)O", "note": "[bixin, methylhydrogen 6,6′-diapocarotene-6,6′-dioate]", "values": [
      {"measurement": "Cmax", "setting": "[1]; [10]", "value": 833, "unit": "ng/mL"},
      {"measurement": "AUC(0-t)", "setting": "[1]; [11]", "value": 1670, "unit": "ng·h/mL"},
      {"measurement": "Tmax", "setting": "[1]; C57Bl/6, mouse, po, Bixin ingestion (50 mg/kg), plasma, analyte as labelled, read-out: Tmax", "value": 30, "unit": "min"},
      {"measurement": "detection in plasma over time", "setting": "[1]; oral 50 mg/kg", "value": "no longer detected after 8 hours"},
      {"measurement": "conversion of ingested compound", "setting": "[1]; oral 50 mg/kg", "value": "rapidly converted into norbixin"},
      {"measurement": "protection of RPE cells against phototoxicity induced in the presence of A2E (cell survival)", "setting": "[4]", "value": "effectively protect"},
      {"measurement": "photoprotective activity on RPE cells in earlier tests (FR 11 54172)", "setting": "[5]", "value": "do not have any photoprotective activity; also recorded: ineffective"}
    ]},
    {"smiles": "O=c1oc2c(O)c(O)cc3c(=O)oc4c(O)c(O)cc1c4c23", "note": "[ellagic acid]", "values": [
      {"measurement": "photoprotective effect on RPE cells in earlier tests (FR 11 54172)", "setting": "[5]; 10 μM and 20 μM", "value": "advantageous photoprotective effect"}
    ]},
    {"smiles": "CC(/C=C/C=C(\\C)C(=O)O)=C\\C=C\\C=C(C)\\C=C\\C=C(/C)C(=O)O", "note": "[crocetin, 8,8′-diapocarotene-8,8′-dioate]", "values": [
      {"measurement": "protection against oxidative stress", "setting": "neuroganglion cells", "value": "protects"}
    ]}
  ]
}
